US11795460B2, “Compositions and methods for TTR gene editing and treating ATTR amyloidosis” (Intellia Therapeutics, Inc., priority 2017, dated 2023)

Tests used:
[1] = tested on: TTR; experiment: TTR editing in primary human hepatocytes electroporated with Spy Cas9 protein loaded with dgRNAs (Table 7); format: cell-based; settings: dgRNA electroporated with Spy Cas9 protein (RNP)
Protocol: (§1) Primary liver hepatocytes. Primary human liver hepatocytes (PHH) and primary cynomolgus liver hepatocytes (PCH) (Gibco) were cultured per the manufacturer's protocol (Invitrogen, protocol 11.28.2012). In brief, the cells were thawed and resuspended in hepatocyte thawing medium with supplements (Gibco, Cat. CM7000) followed by centrifugation at 100 g for 10 minutes for human and 80 g for 4 minutes for cyno. The supernatant was discarded and the pelleted cells resuspended in hepatocyte plating medium plus supplement pack (Invitrogen, Cat. A1217601 and CM3000). Cells were counted and plated on Bio-coat collagen I coated 96-well plates (ThermoFisher, Cat. 877272) at a density of 33,000 cells/well for human or 60,000 cells/well for cyno (or 65,000 cells/well when assaying effects on TTR protein, described further below). Plated cells were allowed to settle and adhere for 6 or 24 hours in a tissue culture incubator at 37° C. and 5% CO2 atmosphere. After incubation cells were checked for monolayer formation and media was replaced with hepatocyte culture medium with serum-free supplement pack (Invitrogen, Cat. A1217601 and CM4000).
(§2) […] formation was performed prior to electroporation or transfection of Spy Cas9 protein loaded with guide RNAs (RNPs) onto cells. For dual guide (dgRNAs), individual crRNA and trRNA was pre-annealed by mixing equivalent amounts of reagent and incubating at 95° C. for 2 min and cooling to room temperature. Single guide (sgRNAs) were boiled at 95° C. for 2 min and cooling to room temperature. The boiled dgRNA or sgRNA was incubated with Spy Cas9 protein in Optimem for 10 minutes at room temperature to form a ribonucleoprotein (RNP) complex.
For RNP electroporation into primary human and cyno hepatocytes, the cells are thawed and resuspended in Lonza electroporation Primary Cell P3 buffer at a concentration of 2500 cells per μL for human hepatocytes and 3500 cells per μL for cyno hepatocytes. A volume of 20 μL of resuspended cells and 5 μL of RNP are mixed together per guide. 20 μL of the mixture is placed into a Lonza electroporation plate. The cells were electroporated using the Lonza nucleofector with the preset protocol EX-147. Post electroporation, the cells are transferred into a Biocoat plate containing pre-warmed maintenance media and placed in a tissue culture incubator at 37° C. and 5% CO2.
(§3) Transfected cells were harvested post-transfection at 24, 48, or 72 hours. The genomic DNA was extracted from each well of a 96-well plate using 50 μL/well BuccalAmp DNA Extraction solution (Epicentre, Cat. QE09050) per manufacturer's protocol. All DNA samples were subjected to PCR and subsequent NGS analyses, as described herein.
(§4) To quantitatively determine the efficiency of editing at the target location in the genome, sequencing was utilized to identify the presence of insertions and deletions introduced by gene editing.
(§5) Primers were designed around the target site within the gene of interest (e.g. TTR), and the genomic area of interest was amplified.
(§6) Additional PCR was performed per the manufacturer's protocols (Illumina) to add chemistry for sequencing. The amplicons were sequenced on an Illumina MiSeq instrument. The reads were aligned to a reference genome (e.g., the human reference genome (hg38), the cynomologus reference genome (mf5), the rat reference genome (rn6), or the mouse reference genome (mm10)) after eliminating those having low quality scores. The resulting files containing the reads were mapped to the reference genome (BAM files), where reads that overlapped the target region of interest were selected and the number of wild type reads versus the number of reads which contain an insertion, substitution, or deletion was calculated.
The editing percentage (e.g., the “editing efficiency” or “percent editing” or “indel frequency”) is defined as the total number of sequence reads with insertions/deletions (“indels”) or substitutions over the total number of sequence reads, including wild type. […]

[2] = tested on: TTR; experiment: TTR editing in HUH7 cells transfected with Spy Cas9 mRNA and dgRNAs (Table 5); format: cell-based, human; settings: HUH7 cells co-transfected with Spy Cas9 mRNA (SEQ ID NO:2) and dgRNAs
Protocol: HUH7 cell line. The human hepatocellular carcinoma cell line HUH7 (Japanese Collection of Research Bioresources Cell Bank, Cat. JCRB0403) was cultured in DMEM media supplemented with 10% fetal bovine serum. Cells were plated on at a density of 15,000 cells/well in a 96-well plate 20 hours prior to transfection. Cells were transfected with Lipofectamine MessengerMAX (ThermoFisher, Cat. LMRNA003) per the manufacturer's protocol. Cells were sequentially transfected with a lipoplex containing Spy Cas9 mRNA (100 ng), MessengerMAX (0.3 μL/well) and OptiMem followed by a separate lipoplex containing individual crRNA (25 nM), tracer RNA (25 nM), MessengerMAX (0.3 μL/well) and OptiMem.
as §3, §4, §5, §6
(§7) The editing percentage (e.g., the “editing efficiency” or “percent editing” or “indel frequency”) is defined as the total number of sequence reads with insertions/deletions (“indels”) or substitutions over the total number of sequence reads, including wild type.
(§8) Guides in dgRNA format targeting human TTR and the cynomologus matched sequences were delivered to HEK293 Cas9, HUH7 and HepG2 cell lines, as well as primary human hepatocytes and primary cynomolgus monkey hepatocytes as described in Example 1. Percent editing was determined for crRNAs comprising each guide sequence across each cell type and the guide sequences were then rank ordered based on highest % edit. The screening data for the guide sequences in Table 1 in all five cell lines are listed below (Table 4 through 11).

[3] = tested on: TTR; experiment: TTR editing in primary human hepatocytes transfected with Spy Cas9 protein (RNP) loaded with dgRNAs (Table 8); format: cell-based; settings: dgRNA transfected with Spy Cas9 protein (RNP)
Protocol: as §1, §2
For RNP lipoplex transfections, cells were transfected with Lipofectamine RNAiMAX (ThermoFisher, Cat. 13778150) per the manufacturer's protocol. Cells were transfected with an RNP containing Spy Cas9 (10 nM), individual guide (10 nM), tracer RNA (10 nM), Lipofectamine RNAiMAX (1.0 μL/well) and OptiMem. RNP formation was performed as described above.
as §3, §4, §5, §6, §7
Guides in dgRNA format targeting human TTR and the cynomologus matched sequences were delivered to HEK293 Cas9, HUH7 and HepG2 cell lines, as well as primary human hepatocytes and primary cynomolgus monkey hepatocytes as described in Example 1. […]

[4] = tested on: TTR; experiment: TTR editing in primary human hepatocytes transfected with Spy Cas9 mRNA and dgRNAs (Table 9); format: cell-based; settings: dgRNA co-transfected with Spy Cas9 mRNA (SEQ ID NO:2)
Protocol: as §1
Lipofectamine RNAiMax (ThermoFisher, Cat. 13778150) based transfections were conducted as per the manufacturer's protocol. Cells were sequentially transfected with a lipoplex containing Spy Cas9 mRNA (100 ng), Lipofectamine RNAiMax (0.4 μL/well) and OptiMem followed by a separate lipoplex containing crRNA (25 nM) and tracer RNA (25 nM) or sgRNA (25 nM), Lipofectamine RNAiMax (0.4 μL/well) and OptiMem.
as §3, §4, §5, §6, §7, §8

[5] = tested on: TTR; experiment: TTR editing in HepG2 cells transfected with Spy Cas9 mRNA and dgRNAs (Table 6); format: cell-based, human; settings: HepG2 cells co-transfected with Spy Cas9 mRNA (SEQ ID NO:2) and dgRNAs
Protocol: HepG2 cell line. The human hepatocellular carcinoma cell line HepG2 (American Type Culture Collection, Cat. HB-8065) was cultured in DMEM media supplemented with 10% fetal bovine serum. Cells were counted and plated on Bio-coat collagen I coated 96-well plates (ThermoFisher, Cat. 877272) at a density of 10,000 cells/well in a 96-well plate 24 hours prior to transfection. Cells were transfected with Lipofectamine 2000 (ThermoFisher, Cat. 11668019) per the manufacturer's protocol. Cells were sequentially transfected with lipoplex containing Spy Cas9 mRNA (100 ng), Lipofectamine 2000 (0.2 μL/well) and OptiMem followed by a separate lipoplex containing individual crRNA (25 nM), tracer RNA (25 nM), Lipofectamine 2000 (0.2 μL/well) and OptiMem.
as §3, §4, §5, §6, §7, §8

[6] = tested on: TTR; experiment: TTR editing in HEK293_Cas9 cells transfected with dgRNAs (Table 4); format: cell-based, human; settings: HEK293_Cas9 cells (constitutively express Spy Cas9) transfected with dgRNAs
Protocol: HEK293 Cas9 cell line. The human embryonic kidney adenocarcinoma cell line HEK293 constitutively expressing Spy Cas9 (“HEK293_Cas9”) was cultured in DMEM media supplemented with 10% fetal bovine serum and 500 μg/ml G418. Cells were plated at a density of 10,000 cells/well in a 96-well plate 24 hours prior to transfection. Cells were transfected with Lipofectamine RNAiMAX (ThermoFisher, Cat. 13778150) per the manufacturer's protocol. Cells were transfected with a lipoplex containing individual crRNA (25 nM), trRNA (25 nM), Lipofectamine RNAiMAX (0.3 μL/well) and OptiMem.
as §3, §4, §5, §6, §7, §8

Row | Sequence | Avg % Deletion [1] [%] | Avg % Edit [1] [%] | Avg % Insert [1] [%] | Avg % Deletion [2] [%] | Avg % Edit [2] [%] | Avg % Insert [2] [%] | Avg % Deletion [3] [%] | Avg % Edit [3] [%] | Avg % Insert [3] [%] | Avg % Deletion [4] [%] | Avg % Edit [4] [%] | Avg % Insert [4] [%] | Avg % Deletion [5] [%] | Avg % Edit [5] [%] | Avg % Insert [5] [%] | Avg % Deletion [6] [%] | Avg % Edit [6] [%] | Avg % Insert [6] [%]
1 | GGGCGGCAAUGGUGUAGCGG (tested as dual guide RNA, chemistry not given here) [CR003379] | 0.27 | 6.57 | 6.30 | 16.48 | 19.18 | 3.38 | 0.34 | 16.86 | 16.51 | 1.27 | 13.20 | 12.00 | 2.04 | 19.74 | 17.70 | 20.98 | 26.32 | 5.34
2 | CACAUGCACGGCCACAUUGA (tested as dual guide RNA, chemistry not given here) [CR003350] | 5.73 | 28.13 | 22.40 | 41.64 | 52.91 | 13.43 | 5.07 | 24.84 | 19.77 | 10.33 | 26.63 | 16.33 | 4.44 | 29.60 | 25.16 | 16.77 | 22.31 | 5.54
3 | ACCUGGGAGCCAUUUGCCUC (tested as dual guide RNA, chemistry not given here) [CR003354] | 0.03 | 2.50 | 2.43 | 11.46 | 12.27 | 1.25 | 0.23 | 10.31 | 10.07 | 0.13 | 2.97 | 2.87 | 0.53 | 5.36 | 4.84 | 15.90 | 18.46 | 2.56
